Assays:
[1] = Human liver microsomal stability; format: in vitro ADME; settings: Human Liver Microsomes 0.76 mg/mL, 1 μM compound, 37° C.; for Compound remaining (%) at 4 min: pH 7.4, 4 min; for Compound remaining (%) at 30 min: pH 7.4, 30 min
Procedure: (§1) Pooled human liver or intestinal microsomes (final concentration 0.76 mg/mL) were diluted in 100 mM potassium phosphate buffer (pH 7.4) and preincubated at 37° C. The compounds of interest were dissolved in DMSO (30 mM), diluted to 100 μM in acetonitrile or methanol, and added to the microsomal incubations to achieve a final concentration of 1 μM with 1% or less final organic solvent. The mixtures were incubated for 30 min at 37° C. Aliquots were removed at predetermined times and quenched with an excess acetonitrile, containing an internal standard, on ice. Following centrifugation, the analytes were quantified by liquid chromatography-tandem mass spectrometry (LC-MS/MS). The compound remaining (%) was calculated from the analyte area ratio at the predetermined time/initial analyte area ratio at time 0×100.

[2] = Human intestinal microsomal stability; format: in vitro ADME; settings: Human Intestinal Microsomes 0.76 mg/mL, 1 μM compound, 37° C.; for Compound remaining (%) at 4 min: pH 7.4, 4 min; for Compound remaining (%) at 30 min: pH 7.4, 30 min
Procedure: as §1

[3] = test system: Apolipoprotein B Secretion from HepG2 Cells; assay: Inhibition of Apolipoprotein B secretion from HepG2 cells (ELISA); format: cell-based, human; settings: 22-24 hours incubation, ApoB ELISA, Low/High IC50 columns give the 95% confidence interval
Procedure: Inhibition of Apolipoprotein B Secretion from HepG2 Cells
To assess the inhibitory effect of the compounds of the invention on ApoB production, an endogenously ApoB producing cell line, HEPG2, was implemented in an in vitro ELISA assay. HEPG2 cells are plated at 25,000 per well (96-well plates) in media consisting of DMEM Low Glucose, 1% NEAA (non-essential amino acids), 10% FBS (heat inactivated), 1% L-Glutamine, and 1% Antimycotic-Antibiotic and incubated for 16-18 hours at 37° C. and 5% CO2. After the 16-18 hour incubation, a 12 point half-log serial of the inhibitor (1000 nM-0.003 nM) is prepared, and 1.5 ul of the serial dilution is added to HEPG2 cells, which have had their media decanted and replaced with 148 ul of fresh media, and the cells are incubated for 22-24 hours at 37° C. and 5% CO2. Two and a half hours before the 22-24 hour incubation period is completed, Nunc Maxisorp plates are coated with 100 ul of primary (coating) antibody (goat anti-apoB), diluting to a ratio of 1:1000 in 1% Carbonate-Bicarbonate Coating Buffer and incubated for at least 2 hours at room temperature before the primary antibody is decanted and the wells of the microplate are washed with 200 ul of washing buffer (1% PBS, 0.05% Tween20). Next, 200 ul of blocking buffer (1% PBS, 1:500 Western Block, 5 mg/ml BSA) is added to the wells of the microplate, and incubated for at least 30 mins. Following the 22-24 hours incubation period, cell plates are removed from the incubator, 20 ul of supernatant from each well is aspirated, added to a corresponding well in 96 well plate containing 140 ul of diluent (1:2-Blocking Buffer: Washing Buffer), and mixed. Then, 120 ul is aspirated from the dilutent-supernatant plate, added to the blocked Nunc Maxisorp 96 well plate, and placed at room temperature on a shaker to mix for at least 2 hours. The secondary (capture) antibody (mouse anti-human apoB) is prepared at a ratio of 1:4000, and the detection antibody (goat anti-mouse HRP conjugated antibody) at a ratio of 1:10,000. For each antibody, 100 ul is added to each well of the microplate and the microplate is incubated at room temperature for 2 hours, washing the microplates between each antibody addition. Colorimetric development is achieved by adding 50 ul of TMB reagent to each well, incubating for 5 mins at room temperature, then adding 50 ul of 2M Sulfuric Acid to each well. Absorbance at 450 nm is monitored in an Envision plate reader to measure the amount of ApoB formed.
Results reported as average IC50, low and high IC50 range (95% confidence interval).

[4] = Homo sapiens, HepG2, HepG2 cells

Row | Structure (SMILES) | Compound remaining (%) at 4 min [1] | Compound remaining (%) at 30 min [1] | Compound remaining (%) at 4 min [2] | Compound remaining (%) at 30 min [2] | IC50 [3, 4] | IC50 ([3]; HepG2 cells)
1 | CCOC(=O)C1(COC(=O)Cc2ccc(NC(=O)c3ccc(C)cc3-c3ccc(C(F)(F)F)cc3)c(C(=O)N(C)C)c2)c2ccccc2C(=O)N1C (single isomer, unassigned) [Example 56, ethyl 1-({2-[3-(dimethylcarbamoyl)-4-({[5-methyl-4′-(trifluoromethyl)biphenyl-2-yl]carbonyl}amino)phenyl]acetoxy}methyl)-2-methyl-3-oxoisoindoline-1-carboxylate] | 38% | 3% | 100% | 87% | 0.147 nM | –
2 | CCOC(=O)C1(COC(=O)Cc2ccc(NC(=O)c3ccc(C)cc3-c3ccc(C(F)(F)F)cc3)c(C(=O)N(C)C)c2)CCc2cccnc21 (single isomer, unassigned) [Example 59, ethyl 7-({2-[3-(dimethylcarbamoyl)-4-({[5-methyl-4′-(trifluoromethyl)biphenyl-2-yl]carbonyl}amino)phenyl]acetoxy}methyl)-6,7-dihydro-5H-cyclopenta[b]pyridine-7-carboxylate] | 22% | 1.1% | 102% | – | 0.712 nM | –
3 | CCOC(=O)C1(COC(=O)Cc2ccc(NC(=O)c3ccccc3-c3ccc(OC(C)C)cc3)c(C(=O)N(C)C)c2)CCc2cccnc21 (single isomer, unassigned) [Example 60, ethyl 7-({2-[3-(dimethylcarbamoyl)-4-({[4′-isopropoxybiphenyl-2-yl)carbonyl]amino}phenyl]acetoxy}methyl)-6,7-dihydro-5H-cyclopenta[b]pyridine-7-carboxylate] | 110% | 8.5% | 107% | 100% | 0.535 nM | –
4 | CCOC(=O)C1(COC(=O)Cc2ccc(NC(=O)c3cccc(OC)c3-c3ccc(C(F)(F)F)cc3)c(C(=O)N(C)C)c2)CCc2cccnc21 (single isomer, unassigned) [Example 61, ethyl 7-({2-[3-(dimethylcarbamoyl)-4-({[6-methoxy-4′-(trifluoromethyl)biphenyl-2-yl]carbonyl}amino)phenyl]acetoxy}methyl)-6,7-dihydro-5H-cyclopenta[b]pyridine-7-carboxylate] | 65% | 4.7% | 106% | 106% | 0.395 nM | –
5 | CCOC(=O)[C@]1(COC(=O)Cc2ccc(NC(=O)c3cccc(C)c3-c3ccc(C(F)(F)F)cc3)c(C(=O)N(C)C)c2)c2ccccc2C(=O)N1C [Example 49, Ethyl (1R)-1-({2-[3-(Dimethylcarbamoyl)-4-({[6-methyl-4′-(trifluoromethyl)biphenyl-2-yl]carbonyl}amino)phenyl]acetoxy}methyl)-2-methyl-3-oxoisoindoline-1-carboxylate] | 42% | 2.7% | 100% | 83% | 0.242 nM | –
6 | CCOC(=O)[C@]1(COC(=O)Cc2ccc(NC(=O)c3ccccc3-c3ccc(OC(C)C)cc3)c(C(=O)N(C)C)c2)c2ccccc2C(=O)N1C [Example 50, Ethyl (1R)-1-({2-[3-(dimethylcarbamoyl)-4-{[(4′-isopropoxybiphenyl-2-yl)carbonyl]amino}phenyl]acetoxy}methyl)-2-methyl-3-oxoisoindoline-1-carboxylate] | 48% | 3.7% | 100% | 92% | 0.124 nM | –
7 | CCOC(=O)[C@]1(COC(=O)Cc2ccc(NC(=O)c3ccc(OC)cc3-c3ccc(C(C)(C)C)cc3)c(C(=O)N(C)C)c2)c2ccccc2C(=O)N1C [Example 69, ethyl (1R)-1-({2-[4-{[(4′-tert-butyl-5-methoxybiphenyl-2-yl)carbonyl]amino}-3-(dimethylcarbamoyl)phenyl]acetoxy}methyl)-2-methyl-3-oxoisoindoline-1-carboxylate] | – | – | – | – | 0.18 nM | –
8 | CCOC(=O)[C@]1(COC(=O)Cc2ccc(NC(=O)c3ccc(OC)cc3-c3ccc(C(F)(F)F)cc3)c(C(=O)N(C)C)c2)c2ccccc2C(=O)N1C [Example 70, ethyl (1R)-1-({2-[3-(dimethylcarbamoyl)-4-({[5-methoxy-4′-(trifluoromethyl)biphenyl-2-yl]carbonyl}amino)phenyl]acetoxy}methyl)-2-methyl-3-oxoisoindoline-1-carboxylate] | 61% | 6.4% | 98% | 96% | 0.414 nM | –
9 | CCOC(=O)[C@]1(COC(=O)Cc2ccc(NC(=O)c3ccccc3-c3ccc(C(C)C)cc3)c(C(=O)N(C)C)c2)c2ccccc2C(=O)N1C [Example 73, ethyl (1R)-1-({2-[3-(dimethylcarbamoyl)-4-{[(4′-isopropylbiphenyl-2-yl)carbonyl]amino}phenyl]acetoxy}methyl)-2-methyl-3-oxoisoindoline-1-carboxylate] | – | – | – | – | 0.162 nM | –
10 | CCOC(=O)[C@]1(COC(=O)Cc2ccc(NC(=O)c3ccccc3-c3ccccc3)c(C(=O)N(C)C)c2)c2ccccc2C(=O)N1C [Example 74, ethyl (1R)-1-[(2-{4-[(biphenyl-2-ylcarbonyl)amino]-3-(dimethylcarbamoyl)phenyl}acetoxy)methyl]-2-methyl-3-oxoisoindoline-1-carboxylate] | – | – | – | – | 1.28 nM | –
11 | CCOC(=O)[C@]1(COC(=O)Cc2ccc(NC(=O)c3ccccc3-c3ccccc3OC)c(C(=O)N(C)C)c2)c2ccccc2C(=O)N1C [Example 75, ethyl (1R)-1-({2-[3-(dimethylcarbamoyl)-4-{[(2′-methoxybiphenyl-2-yl)carbonyl]amino}phenyl]acetoxy}methyl)-2-methyl-3-oxoisoindoline-1-carboxylate] | – | – | – | – | 4.16 nM | –
12 | CCOC(=O)[C@]1(COC(=O)Cc2ccc(NC(=O)c3ccccc3-c3ccc(OC(C)C)cc3)c(C(=O)N(C)C)c2)c2ccccc2C(=O)N1C [Example 77, Ethyl (1R)-1-({2-[3-(dimethylcarbamoyl)-4-{[(4′-isopropoxybiphenyl-2-yl)carbonyl]amino}phenyl]acetoxy}methyl)-2-methyl-3-oxoisoindoline-1-carboxylate] | – | – | – | – | – | 0.119 nM

— US20130072519A1, “2-PHENYL BENZOYLAMIDES” (priority 2010, published 2013)
